This assay addresses T1, vanilloid receptor (Rattus norvegicus, UniProt O35433).
T1 construct: DRG nerve cells from the primary culture of 2 days were equilibrated; endogenous in cells; host or cells: primary culture of dorsal root ganglion neurons from neonatal SD rats
Description: 45Ca influx test in cultured neonatal rat DRG neurons, inhibition of capsaicin response. In kind it is cell-based. As to conditions: neonatal rat DRG neurons, capsaicin 0.5 μM, 45Ca influx; read-out: Antagonist Calcium Uptake Test (IC50). The essentials:
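Neonatal SD rat DRG neurons, cultured 2 days with NGF (200 ng/ml) and Ara-C, were washed in HEPES (10 mM, pH 7.4)-buffered Ca/Mg-free HBSS. Test compound was added with capsaicin (final 0.5 μM) and 45Ca (10 μCi/ml) for 10 min at room temperature; 45Ca uptake counted by scintillation after SDS elution.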
T1 sequence (O35433 whole entry): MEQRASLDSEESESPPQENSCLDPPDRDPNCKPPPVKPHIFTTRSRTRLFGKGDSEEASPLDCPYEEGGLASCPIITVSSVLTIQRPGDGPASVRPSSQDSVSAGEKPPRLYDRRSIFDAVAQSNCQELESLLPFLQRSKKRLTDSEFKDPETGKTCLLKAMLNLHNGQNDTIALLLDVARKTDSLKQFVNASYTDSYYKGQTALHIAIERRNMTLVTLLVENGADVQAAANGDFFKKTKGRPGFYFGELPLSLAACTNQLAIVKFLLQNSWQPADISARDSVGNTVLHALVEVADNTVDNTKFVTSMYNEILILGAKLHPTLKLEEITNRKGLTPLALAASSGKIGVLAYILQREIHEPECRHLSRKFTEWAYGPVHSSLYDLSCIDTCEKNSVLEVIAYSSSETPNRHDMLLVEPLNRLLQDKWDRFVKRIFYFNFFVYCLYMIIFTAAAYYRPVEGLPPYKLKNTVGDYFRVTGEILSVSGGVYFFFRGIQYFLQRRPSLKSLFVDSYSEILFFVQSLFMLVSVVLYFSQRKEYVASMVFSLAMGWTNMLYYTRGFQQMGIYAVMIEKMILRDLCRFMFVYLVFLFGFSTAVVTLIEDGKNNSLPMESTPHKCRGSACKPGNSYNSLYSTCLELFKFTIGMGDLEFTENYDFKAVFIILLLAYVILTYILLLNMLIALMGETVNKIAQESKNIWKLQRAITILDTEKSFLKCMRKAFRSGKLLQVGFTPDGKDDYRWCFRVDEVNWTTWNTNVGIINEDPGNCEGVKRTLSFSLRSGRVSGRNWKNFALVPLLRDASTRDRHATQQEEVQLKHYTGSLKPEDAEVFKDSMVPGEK
By IC50 is commonly meant the concentration needed to halve the response being measured. Take `C[C@@H](NC(=O)/C=C/c1ccc(C(F)(F)F)nc1-c1cccc(F)c1)c1ccc(NS(C)(=O)=O)c(F)c1` [Example 181, (R)—N-[1-(3-Fluoro-4-methanesulfonylamino-phenyl)-ethyl]-3-[2-(3-fluoro-phenyl)-6-trifluoromethyl-pyridin-3-yl]-acrylamide]: the IC50 worked out at 270 nM.
For the compound `Cc1cc(CNC(=O)/C=C/c2ccc(C(F)(F)F)nc2-c2cccc(F)c2)ccc1NS(C)(=O)=O` [Example 182, 3-[2-(3-Fluoro-phenyl)-6-trifluoromethyl-pyridin-3-yl]-N-(4-methanesulfonylamino-3-methyl-benzyl)-acrylamide], the IC50 stood at 400 nM.
Take `C[C@@H](NC(=O)/C=C/c1ccc(C(F)(F)F)nc1N1CCCCC1)c1ccc(NS(C)(=O)=O)c(F)c1` [Example 183, (R)—N-[1-(3-Fluoro-4-methanesulfonylamino-phenyl)-ethyl]-3-(2-piperid-1-yl-6-trifluoromethyl-pyridin-3-yl)-acrylamide]: the IC50 came to 220 nM.
Turning to `Cc1cc(CNC(=O)/C=C/c2ccc(C(F)(F)F)nc2N2CCCCC2)ccc1NS(C)(=O)=O` [Example 184, N-(4-Methanesulfonylamino-3-methyl-benzyl)-3-(2-piperid-1-yl-6-trifluoromethyl-pyridin-3-yl)-acrylamide], the IC50 stood at 230 nM.
Regarding `C#Cc1cc(CNC(=O)/C=C/c2ccc(C(F)(F)F)nc2SCCC)cc(F)c1NS(C)(=O)=O` [Example 185, N-(3-Ethynyl-5-fluoro-4-methanesulfonylamino-benzyl)-3-(2-propylthio-6-trifluoromethyl-pyridin-3-yl)-acrylamide], the IC50 was 280 nM.
Consider `CCCSc1nc(C(F)(F)F)ccc1/C=C/C(=O)NCc1ccc(NS(C)(=O)=O)c(C)c1` [Example 186, N-(4-Methanesulfonylamino-3-methyl-benzyl)-3-(2-propylthio-6-trifluoromethyl-pyridin-3-yl)-acrylamide], for which the IC50 was found to be 510 nM.
Regarding `CCCCNc1nc(C(F)(F)F)ccc1/C=C/C(=O)NCc1ccc(NS(C)(=O)=O)c(C)c1` [Example 187, N-(4-Methanesulfonylamino-3-methyl-benzyl)-3-(2-butylamino-6-trifluoromethyl-pyridin-3-yl)-acrylamide], the IC50 was 75 nM.
Consider `CS(=O)(=O)Nc1c(F)cc(CNC(=O)/C=C/c2ccc(C(F)(F)F)nc2CCc2ccccc2)cc1C(F)(F)F` [Example 189, N-(3-Fluoro-4-methanesulfonylamino-5-trifluoromethyl-benzyl)-3-(2-phenethyl-6-trifluoromethyl-pyridin-3-yl)-acrylamide], for which the IC50 came out at 400 nM.
The result for `C#Cc1cc(CNC(=O)/C=C/c2ccc(C(F)(F)F)nc2C#CCN(CC)CC)cc(F)c1NS(C)(=O)=O` [Example 190] reads 2300 nM.
Regarding `Cc1cc(CNC(=O)/C=C/c2ccc(C(F)(F)F)nc2NCc2ccccc2)ccc1NS(C)(=O)=O` [Example 191, 3-(2-Benzylamino-6-trifluoromethyl-pyridin-3-yl)-N-(4-methanesulfonylamino-3-methyl-benzyl)-acrylamide], the IC50 is 220 nM.
Regarding `CCCCc1nc(C(F)(F)F)ccc1/C=C/C(=O)NCc1cc(C)c(NS(C)(=O)=O)c(F)c1` [Example 192, 3-(2-Butyl-6-trifluoromethyl-pyridin-3-yl)-N-(3-fluoro-4-methanesulfonylamino-5-methyl-benzyl)-acrylamide], the IC50 was determined as 90 nM.
With `CCCCc1nc(C(F)(F)F)ccc1/C=C/C(=O)N[C@H](C)c1ccc(NS(C)(=O)=O)c(F)c1` [Example 193, (R)-3-(2-Butyl-6-trifluoromethyl-pyridin-3-yl)-N-[1-(3-fluoro-4-methanesulfonylamino-phenyl)-ethyl]-acrylamide], the IC50 was determined as 42 nM.
Turning to `CCCCc1nc(C(F)(F)F)ccc1/C=C/C(=O)NCc1ccc(NS(C)(=O)=O)c(C)c1` [Example 194, 3-(2-Butyl-6-trifluoromethyl-pyridin-3-yl)-N-(4-methanesulfonylamino-3-methyl-benzyl)-acrylamide], the IC50 was determined as 76 nM.
Turning to `C[C@@H](NC(=O)/C=C/c1ccc(C(F)(F)F)nc1NCc1ccccc1)c1ccc(NS(C)(=O)=O)c(F)c1` [Example 195, (R)-3-(2-Benzylamino-6-trifluoromethyl-pyridin-3-yl)-N-[1-(3-fluoro-4-methanesulfonylamino-phenyl)-ethyl]-acrylamide], the IC50 came to 67 nM.
For `C#Cc1cc(CNC(=O)/C=C/c2ccc(C(F)(F)F)nc2NCc2ccccc2)cc(F)c1NS(C)(=O)=O` [Example 196, 3-(2-Benzylamino-6-trifluoromethyl-pyridin-3-yl)-N-(3-ethynyl-5-fluoro-4-methanesulfonylamino-benzyl)-acrylamide] the value was 76 nM; for `C#Cc1cc(CNC(=O)/C=C/c2ccc(C(F)(F)F)nc2CCCCC)cc(F)c1NS(C)(=O)=O` [Example 197, N-(3-Ethynyl-5-fluoro-4-methanesulfonylamino-benzyl)-3-(2-pentyl-6-trifluoromethyl)-pyridin-3-yl-acrylamide], 65 nM.
Take `CCCCCc1nc(C(F)(F)F)ccc1/C=C/C(=O)NCc1ccc(NS(C)(=O)=O)c(C)c1` [Example 198, N-(4-Methanesulfonylamino-3-methyl-benzyl)-3-(2-pentyl-6-trifluoromethyl)-pyridin-3-yl-acrylamide]: the IC50 came out at 54 nM.
For `CCCCCc1nc(C(F)(F)F)ccc1/C=C/C(=O)NCc1cc(F)c(NS(C)(=O)=O)c(F)c1` [Example 199, N-(3,5-Difluoro-4-methanesulfonylamino-benzyl)-3-(2-pentyl-6-trifluoromethyl)-pyridin-3-yl-acrylamide] the value was 92 nM.
The result for `CS(=O)(=O)Nc1c(F)cc(CNC(=O)/C=C/c2ccc(C(F)(F)F)nc2N2CCCCC2)cc1F` [Example 200, N-(4-Methanesulfonylamino-3,5-difluoro-benzyl)-3-(2-piperid-1-yl-6-trifluoromethyl-pyridin-3-yl)-acrylamide] reads 580 nM.
Regarding `CS(=O)(=O)Nc1c(F)cc(CNC(=O)/C=C/c2ccc(C(F)(F)F)nc2-c2cccc(F)c2)cc1F` [Example 201, N-(4-Methanesulfonylamino-3,5-difluoro-benzyl)-3-[2-(3-fluoro-phenyl)-6-trifluoromethyl-pyridin-3-yl]-acrylamide], the IC50 is 420 nM.
With `CCCCNc1nc(C(F)(F)F)ccc1/C=C/C(=O)NCc1cc(F)c(NS(C)(=O)=O)c(F)c1` [Example 202, N-(3,5-Difluoro-4-methanesulfonylamino-benzyl)-3-(2-butylamino-6-trifluoromethyl)-pyridin-3-yl-acrylamide], the IC50 was 35 nM.
`CS(=O)(=O)Nc1c(F)cc(CNC(=O)/C=C/c2ccc(C(F)(F)F)nc2CCc2ccccc2)cc1F` [Example 203, N-(3,5-Difluoro-4-methanesulfonylamino-benzyl)-3-(2-phenethyl-6-trifluoromethyl-pyridin-3-yl)-acrylamide]: the IC50 was found to be 120 nM.
For the compound `COCCNc1nc(C(F)(F)F)ccc1/C=C/C(=O)NCc1cc(F)c(NS(C)(=O)=O)c(F)c1` [Example 204, N-(3,5-Difluoro-4-methanesulfonylamino-benzyl)-3-[2-(2-methoxy-ethylamino)-6-trifluoromethyl-pyridin-3-yl]-acrylamide], the IC50 is 170 nM.
Regarding `CCCCc1nc(C(F)(F)F)ccc1/C=C/C(=O)NCc1cc(F)c(NS(C)(=O)=O)c(F)c1` [Example 205, 3-(2-Butyl-6-trifluoromethyl-pyridin-3-yl)-N-(3,5-difluoro-4-methanesulfonylamino-benzyl)-acrylamide], the IC50 is 86 nM.
Consider `CCCc1nc(C(F)(F)F)ccc1/C=C/C(=O)NCc1cc(F)c(NS(C)(=O)=O)c(F)c1` [Example 207, N-(3,5-Difluoro-4-methanesulfonylamino-benzyl)-3-(2-propyl-6-trifluoromethyl-pyridin-3-yl)-acrylamide], for which the IC50 stood at 140 nM.
Turning to `CCCc1nc(C(F)(F)F)ccc1/C=C/C(=O)NCc1ccc(NS(C)(=O)=O)c(C)c1` [Example 208, N-(4-Methanesulfonylamino-3-methyl-benzyl)-3-(2-propyl-6-trifluoromethyl-pyridin-3-yl)-acrylamide], the IC50 was found to be 49 nM.
Regarding `CCCc1nc(C(F)(F)F)ccc1/C=C/C(=O)N[C@H](C)c1ccc(NS(C)(=O)=O)c(F)c1` [Example 209, (R)-3-(2-Propyl-6-trifluoromethyl-pyridin-3-yl)-N-[1-(3-fluoro-4-methanesulfonylamino-phenyl)-ethyl]-acrylamide], the IC50 stood at 87 nM.
For the compound `CCC(C)Nc1nc(C(F)(F)F)ccc1/C=C/C(=O)N[C@H](C)c1ccc(NS(C)(=O)=O)c(F)c1` (stereo partly drawn) [Example 210, (R)-3-(2-sec-Butylamino-6-trifluoromethyl-pyridin-3-yl)-N-[1-(3-fluoro-4-methanesulfonylamino-phenyl)-ethyl]-acrylamide], the IC50 is 22 nM.
With `CCC(C)Cc1nc(C(F)(F)F)ccc1/C=C/C(=O)N[C@H](C)c1ccc(NS(C)(=O)=O)c(F)c1` (stereo partly drawn) [Example 211, (R)-3-[2-(2-Methyl-butyl)-6-trifluoromethyl-pyridin-3-yl]-N-[1-(3-fluoro-4-methanesulfonylamino-phenyl)-ethyl]-acrylamide], the IC50 is 62 nM.
Consider `COCCNc1nc(C(F)(F)F)ccc1/C=C/C(=O)N[C@H](C)c1ccc(NS(C)(=O)=O)c(F)c1` [Example 212, (R)—N-[1-(3-Fluoro-4-methanesulfonylamino-phenyl)-ethyl]-3-[2-(2-methoxy-ethylamino)-6-trifluoromethyl-pyridin-3-yl]-acrylamide], for which the IC50 is 110 nM.
For `CCCCNc1nc(C(F)(F)F)ccc1/C=C/C(=O)N[C@H](C)c1ccc(NS(C)(=O)=O)c(F)c1` [Example 213, (R)—N-[1-(3-Fluoro-4-methanesulfonylamino-phenyl)-ethyl]-3-(2-butylamino)-6-trifluoromethyl-pyridin-3-yl-acrylamide] the value was 28 nM.

The values above are taken from US7858621B2 (Amorepacific Corporation, priority 2006, dated 2010).
